Assay results published in PubChem BioAssay AID1963427 (Molecular Pharmacology Branch, DTP, NCI, 2024).

Tested on: 317291-083-R-J1-PDC complex spheroid growth
Test: Anticancer human tumor 317291-083-R-J1-PDC patient-derived soft tissue sarcoma cell line growth inhibition [Asc]
Conditions: for IC50: curve of first compound; for viability, T/C: stronger effect = lower value
Method in brief: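 Tumor cells were grown as complex spheroids with human endothelial cells (HUVEC) and human mesenchymal stem cells as stroma. Agents were tested alone and in combination, in half-log steps down from the clinical Cmax, or from 10 microM where Cmax was unknown.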

[1] = second compound 0.0316 µM, first compound 0.0316 µM
[2] = second compound 0.0316 µM, first compound 0.1 µM
[3] = second compound 0.0316 µM, first compound 0.316 µM
[4] = second compound 0.0316 µM, first compound 1 µM
[5] = second compound 0.1 µM, first compound 0.0316 µM
[6] = second compound 0.1 µM, first compound 0.1 µM
[7] = second compound 0.1 µM, first compound 0.316 µM
[8] = second compound 0.1 µM, first compound 1 µM
[9] = second compound 0.316 µM, first compound 0.0316 µM
[10] = second compound 0.316 µM, first compound 0.1 µM
[11] = second compound 0.316 µM, first compound 0.316 µM
[12] = second compound 0.316 µM, first compound 1 µM
[13] = second compound 1 µM, first compound 0.0316 µM
[14] = second compound 1 µM, first compound 0.1 µM
[15] = second compound 1 µM, first compound 0.316 µM
[16] = second compound 1 µM, first compound 1 µM
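Further: compound exposure lasted seven days after spheroids formed for three days.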
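Wherever viability, T/C is given: 100% = DMSO vehicle control wells.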

Which results are given for `C#Cc1c(F)ccc2cc(O)cc(-c3ncc4c(N5CC6CCC(C5)N6)nc(OCC56CCCN5CC(F)C6)nc4c3F)c12` (centres undefined) + Cc1c(S(C)(=O)=O)c(-c2cc(F)cc(N3CCN(c4ccc(NS(=O)(=O)c5ccc(NC(CCN6CCC(C(=O)OCCCP(=O)(O)O)CC6)CSc6ccccc6)c(S(=O)(=O)C(F)(F)F)c5)cc4)CC3)c2)c(-c2ccc(Cl)cc2)n1C(C)C?
IC50 (second compound 0.0316 µM): > 10000 nM; IC50 (second compound 0.1 µM): > 10000 nM; IC50 (second compound 0.316 µM): > 10000 nM; IC50 (second compound 1 µM): > 10000 nM; IC50 (second compound 3.16 µM): > 10000 nM; IC50 (second compound 10 µM): 9940 nM; viability, T/C [1]: 105%; viability, T/C [2]: 89%; viability, T/C [3]: 102%; viability, T/C [4]: 84.6%; viability, T/C (second compound 0.0316 µM, first compound 3.16 µM): 96.7%; viability, T/C (second compound 0.0316 µM, first compound 10 µM): 68.8%; viability, T/C [5]: 86.5%; viability, T/C [6]: 101%; viability, T/C [7]: 92.1%; viability, T/C [8]: 87.7%; viability, T/C (second compound 0.1 µM, first compound 3.16 µM): 96.7%; viability, T/C (second compound 0.1 µM, first compound 10 µM): 70.1%; viability, T/C [9]: 93.9%; viability, T/C [10]: 87.3%; viability, T/C [11]: 80.3%; viability, T/C [12]: 78.9%; viability, T/C (second compound 0.316 µM, first compound 3.16 µM): 80.3%; viability, T/C (second compound 0.316 µM, first compound 10 µM): 62.5%; viability, T/C [13]: 90.7%; viability, T/C [14]: 70.3%; viability, T/C [15]: 83.4%; viability, T/C [16]: 67.6%; viability, T/C (second compound 1 µM, first compound 3.16 µM): 74.9%; viability, T/C (second compound 1 µM, first compound 10 µM): 58.4%; viability, T/C (second compound 3.16 µM, first compound 0.0316 µM): 75.5%; viability, T/C (second compound 3.16 µM, first compound 0.1 µM): 67.1%; viability, T/C (second compound 3.16 µM, first compound 0.316 µM): 68.9%; viability, T/C (second compound 3.16 µM, first compound 1 µM): 71.7%; viability, T/C (second compound 3.16 µM, first compound 3.16 µM): 74.3%; viability, T/C (second compound 3.16 µM, first compound 10 µM): 53.2%; viability, T/C (second compound 10 µM, first compound 0.0316 µM): 79.9%; viability, T/C (second compound 10 µM, first compound 0.1 µM): 101%; viability, T/C (second compound 10 µM, first compound 0.316 µM): 89.2%; viability, T/C (second compound 10 µM, first compound 1 µM): 76.9%; viability, T/C (second compound 10 µM, first compound 3.16 µM): 80.5%; viability, T/C (second compound 10 µM, first compound 10 µM): 49.1%

With `O=C(c1ccc(F)c(F)c1Nc1ccc(I)cc1F)N1CC(O)([C@@H]2CCCCN2)C1` + CNC(C)C(=O)NC1CN(S(=O)(=O)c2cccc(S(=O)(=O)N3CCC4CCC(C(=O)NC(c5ccccc5)c5ccccc5)N4C(=O)C(NC(=O)C(C)NC)C3)c2)CCC2CCC(C(=O)NC(c3ccccc3)c3ccccc3)N2C1=O as the molecule, how does the IC50 (second compound 0.00316 µM) read?
The IC50 was 203 nM.

What about the IC50 (second compound 0.01 µM) of the same molecule?
Its IC50 is 244 nM.

What about the IC50 (second compound 0.0316 µM) of the same molecule?
The IC50 was 258 nM.

What about the IC50 (second compound 0.1 µM) of the same molecule?
The IC50 was 74.4 nM.

What about the IC50 (second compound 0.316 µM) of the same molecule?
Its IC50 is 78.1 nM.

And the IC50 (second compound 1 µM)?
Its IC50 is under 3.16 nM.

And the viability, T/C (second compound 0.00316 µM, first compound 0.00316 µM)?
Its viability, T/C is 75.5%.

What about the viability, T/C (second compound 0.00316 µM, first compound 0.01 µM) of the same molecule?
The viability, T/C was 69.5%.

What about the viability, T/C (second compound 0.00316 µM, first compound 0.0316 µM) of the same molecule?
Its viability, T/C is 63.3%.

What about the viability, T/C (second compound 0.00316 µM, first compound 0.1 µM) of the same molecule?
The viability, T/C was 71.5%.

What about the viability, T/C (second compound 0.00316 µM, first compound 0.316 µM) of the same molecule?
Its viability, T/C is 37.5%.

And the viability, T/C (second compound 0.00316 µM, first compound 1 µM)?
The viability, T/C was 13.9%.

And the viability, T/C (second compound 0.01 µM, first compound 0.00316 µM)?
Its viability, T/C is 100%.

What about the viability, T/C (second compound 0.01 µM, first compound 0.01 µM) of the same molecule?
The viability, T/C was 73.2%.

What about the viability, T/C (second compound 0.01 µM, first compound 0.0316 µM) of the same molecule?
The viability, T/C was 75.2%.

What about the viability, T/C (second compound 0.01 µM, first compound 0.1 µM) of the same molecule?
The viability, T/C was 91.7%.

What about the viability, T/C (second compound 0.01 µM, first compound 0.316 µM) of the same molecule?
The viability, T/C was 39.8%.

And the viability, T/C (second compound 0.01 µM, first compound 1 µM)?
Its viability, T/C is 23.4%.

What about the viability, T/C (second compound 0.0316 µM, first compound 0.00316 µM) of the same molecule?
Its viability, T/C is 92%.

And the viability, T/C (second compound 0.0316 µM, first compound 0.01 µM)?
Its viability, T/C is 72%.

And the viability, T/C [1]?
The viability, T/C was 73.6%.

And the viability, T/C [2]?
Its viability, T/C is 90%.

And the viability, T/C [3]?
Its viability, T/C is 43.1%.

And the viability, T/C [4]?
The viability, T/C was 14.7%.

What about the viability, T/C (second compound 0.1 µM, first compound 0.00316 µM) of the same molecule?
The viability, T/C was 72.3%.

What about the viability, T/C (second compound 0.1 µM, first compound 0.01 µM) of the same molecule?
The viability, T/C was 83.5%.

And the viability, T/C [5]?
The viability, T/C was 56.3%.

What about the viability, T/C [6] of the same molecule?
The viability, T/C was 49.9%.

What about the viability, T/C [7] of the same molecule?
Its viability, T/C is 19%.

And the viability, T/C [8]?
Its viability, T/C is 8.71%.

And the viability, T/C (second compound 0.316 µM, first compound 0.00316 µM)?
Its viability, T/C is 60.1%.

What about the viability, T/C (second compound 0.316 µM, first compound 0.01 µM) of the same molecule?
Its viability, T/C is 63.7%.

And the viability, T/C [9]?
Its viability, T/C is 47.8%.

And the viability, T/C [10]?
Its viability, T/C is 47.9%.

What about the viability, T/C [11] of the same molecule?
Its viability, T/C is 38.6%.

What about the viability, T/C [12] of the same molecule?
Its viability, T/C is 7.49%.

What about the viability, T/C (second compound 1 µM, first compound 0.00316 µM) of the same molecule?
Its viability, T/C is 37.1%.

What about the viability, T/C (second compound 1 µM, first compound 0.01 µM) of the same molecule?
The viability, T/C was 42.3%.

What about the viability, T/C [13] of the same molecule?
The viability, T/C was 37.9%.

What about the viability, T/C [14] of the same molecule?
The viability, T/C was 33.5%.

And the viability, T/C [15]?
Its viability, T/C is 14.8%.

What about the viability, T/C [16] of the same molecule?
Its viability, T/C is 5.83%.
